The source made the active and inactive calls. The calls are words filed in the database; no cut-off is given here.
Columns and labels:
[1] = tested on: BGC-823; experiment: Cytotoxicity against human BGC823 cells at 10 uM after 96 hrs by MTT assay; format: functional, cell-based
[2] = tested on: Human immunodeficiency virus 1; experiment: Antiviral activity against HIV1 infected in human 293T cells expressing VSV-G assessed as inhibition of viral p24 production at 10 uM after 48 hrs by ELISA; format: functional, organism-based
[3] = tested on: A549; experiment: Cytotoxicity against human A549 cells at 10 uM after 96 hrs by MTT assay; format: functional, cell-based
[4] = Antiinflammatory activity in rat polymorphonuclear leukocytes assessed as inhibition of PAF-induced release of glucuronidase at 10 uM; format: functional
[5] = tested on: MCF7; experiment: Cytotoxicity against human MCF7 cells at 10 uM after 96 hrs by MTT assay; format: functional, cell-based
[6] = tested on: HCT-8; experiment: Cytotoxicity against human HCT8 cells at 10 uM after 96 hrs by MTT assay; format: functional, cell-based
[7] = tested on: Bel-7402; experiment: Cytotoxicity against human Bel7402 cells at 10 uM after 96 hrs by MTT assay; format: functional, cell-based
[8] = tested on: KETR3; experiment: Cytotoxicity against human Ketr3 cells at 10 uM after 96 hrs by MTT assay; format: functional, cell-based

Row | Compound | Activity [1] | inhibition [2] | Activity [3] | inhibition at 10 µM [4] | Activity [5] | Activity [6] | Activity [7] | Activity [8]
1 | C=C[C@H]1[C@H](O[C@@H]2O[C@H](CO)[C@@H](O)[C@H](O)[C@H]2O)OC=C(C(=O)OC)[C@H]1/C=C/c1cc(C(=O)O)c[n+]([C@H](C(=O)[O-])C(C)C)c1 | inactive | inactive | inactive | < 30% | inactive | inactive | inactive | inactive
2 | C=C[C@H]1[C@H](O[C@@H]2O[C@H](CO)[C@@H](O)[C@H](O)[C@H]2O)OC=C(C(N)=O)[C@H]1/C=C/c1ccc[n+]([C@@H](CCC(=O)O)C(=O)[O-])c1 | inactive | inactive | inactive | < 30% | inactive | inactive | inactive | inactive
3 | COC(=O)C1=CO[C@@H]2C[C@H]1C[C@@H]1C(C(=O)OC)=CO[C@@H](O[C@@H]3O[C@H](CO)[C@@H](O)[C@H](O)[C@H]3O)[C@@H]12 | inactive | inactive | inactive | < 30% | inactive | inactive | inactive | inactive
4 | C=C[C@H]1[C@H](O[C@@H]2O[C@H](CO)[C@@H](O)[C@H](O)[C@H]2O)OC=C(C(=O)OC)[C@H]1CC(=O)OC | inactive | inactive | inactive | < 30% | inactive | inactive | inactive | inactive
5 | O=C(O)c1cc(O[C@@H]2O[C@H](CO)[C@@H](O)[C@H](O)[C@H]2O)ccc1O | inactive | inactive | inactive | < 30% | inactive | inactive | inactive | inactive
6 | O=C(O)c1ccc(O)c(O)c1 [PROTOCATECHUIC ACID] | inactive | inactive | inactive | < 30% | inactive | inactive | inactive | inactive
7 | COc1cc(C(=O)O)ccc1O[C@@H]1O[C@H](COC(=O)c2ccccc2)[C@@H](O)[C@H](O)[C@H]1O | inactive | inactive | inactive | < 30% | inactive | inactive | inactive | inactive
8 | C=C[C@H]1[C@H](O[C@@H]2O[C@H](CO)[C@@H](O)[C@H](O)[C@H]2O)OC=C(C(=O)[O-])[C@H]1/C=C\c1ccc[n+]([C@H](Cc2ccccc2)C(=O)O)c1 | inactive | inactive | inactive | < 30% | inactive | inactive | inactive | inactive
9 | COc1cc(/C=C/CO)cc(OC)c1O[C@@H]1O[C@H](CO)[C@@H](O)[C@H](O)[C@H]1O [SYRINGIN] | inactive | inactive | inactive | < 30% | inactive | inactive | inactive | inactive
10 | COC(=O)C1=CO[C@@H](O[C@@H]2O[C@H](CO)[C@@H](O)[C@H](O)[C@H]2O)[C@H]2[C@@H]1CC(=O)[C@@H]2C | inactive | inactive | inactive | < 30% | inactive | inactive | inactive | inactive
11 | COC(=O)[C@]1(O)C[C@@H](O)[C@@H](O)[C@H](OC(=O)/C=C/c2ccc(O)c(O)c2)C1 [CHLOROGENIC ACID METHYL ESTER] | inactive | inactive | inactive | < 30% | inactive | inactive | inactive | inactive
12 | Nc1ncnc2c1ncn2[C@@H]1O[C@H](CO)[C@@H](O)[C@H]1O [ADENOSINE] | inactive | inactive | inactive | < 30% | inactive | inactive | inactive | inactive
13 | O=C(/C=C/c1ccc(O)c(O)c1)O[C@@H]1C[C@@](O)(C(=O)O)C[C@@H](O)[C@H]1O | inactive | inactive | inactive | < 30% | inactive | inactive | inactive | inactive
14 | O=C(/C=C/c1ccc(O)c(O)c1)O[C@@H]1C[C@](O)(C(=O)O)C[C@@H](O)[C@H]1O [CHLOROGENIC ACID] | inactive | inactive | inactive | < 30% | inactive | inactive | inactive | inactive
15 | O=C(/C=C/c1ccc(O)c(O)c1)O[C@H]1[C@H](O)C[C@@](O)(C(=O)O)C[C@H]1O | inactive | inactive | inactive | < 30% | inactive | inactive | inactive | inactive
16 | C=C[C@H]1[C@H](O[C@@H]2O[C@H](CO)[C@@H](O)[C@H](O)[C@H]2O)OC=C(C(=O)OC)[C@H]1/C=C/c1ccc[n+]([C@@H](C)C(=O)[O-])c1 | inactive | inactive | inactive | 72.3% | inactive | inactive | inactive | inactive
17 | O=C(O)/C=C/c1ccc(O[C@@H]2O[C@H](CO)[C@@H](O)[C@H](O)[C@H]2O)c(O)c1 | inactive | inactive | inactive | < 30% | inactive | inactive | inactive | inactive
18 | O=C(OCc1ccccc1)c1c(O)cccc1O[C@@H]1O[C@H](CO)[C@@H](O)[C@H](O)[C@H]1O | inactive | inactive | inactive | < 30% | inactive | inactive | inactive | inactive

Source: ChEMBL document CHEMBL3091360, “Homosecoiridoid alkaloids with amino acid units from the flower buds of Lonicera japonica” (J Nat Prod, 2013)
